Target: Mcl-1 (Homo sapiens, UniProt Q07820)
Experiment: FP based binding assay to Mcl-1 (Bid BH3 peptide probe)
Conditions: for improvement in comparison with 382: relative to 382
[1] = Binding affinity of Mcl-1 inhibitors using FP based assay, Table 1

Mcl-1, sequence (Q07820 whole entry): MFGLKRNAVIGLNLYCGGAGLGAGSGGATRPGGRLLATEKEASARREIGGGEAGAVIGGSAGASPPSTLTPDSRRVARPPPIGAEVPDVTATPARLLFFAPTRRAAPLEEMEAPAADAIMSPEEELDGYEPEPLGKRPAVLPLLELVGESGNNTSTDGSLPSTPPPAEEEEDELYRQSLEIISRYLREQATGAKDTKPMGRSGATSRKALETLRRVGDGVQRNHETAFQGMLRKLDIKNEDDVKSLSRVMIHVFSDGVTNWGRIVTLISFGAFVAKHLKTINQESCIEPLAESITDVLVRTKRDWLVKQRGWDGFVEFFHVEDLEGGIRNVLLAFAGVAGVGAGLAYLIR

Structure (SMILES) | Ki [1] [nM] | other results
O=C(O)c1cc(SCc2ccccc2)ccc1NS(=O)(=O)N1CCN(c2ccccc2)CC1 [Compound 456, 5-(benzylthio)-2-(1-phenylpiperazine-4-sulfonamido)benzoic acid] | 387 ± 138 | –
CC(C)(C)c1ccc(N2CCN(C(=O)CCc3cccc(-c4ccc(C(=O)O)c(NS(=O)(=O)N5CCN(c6ccc(C(C)(C)C)cc6)CC5)c4)c3)CC2)cc1 [Compound 484] | 42 ± 17 | –
O=C(O)c1cc(-c2ccccc2COc2cccc3ccccc23)ccc1NS(=O)(=O)c1ccc2ccccc2c1 [Compound 473, 2′-((naphthalen-1-yloxy)methyl)-4-(naphthalene-2-sulfonamido)-[1,1′-biphenyl]-3-carboxylic acid] | 31 ± 9 | –
O=C(O)c1cc(-c2ccc(COc3cccc4ccccc34)cc2)ccc1NS(=O)(=O)c1ccc2ccccc2c1 [Compound 475, 4′-((naphthalen-1-yloxy)methyl)-4-(naphthalene-2-sulfonamido)-[1,1′-biphenyl]-3-carboxylic acid] | – | Ki (binding affinity to Mcl-1): 27 ± 5 nM; improvement in comparison with 382: 6 fold
O=C(CSc1ccc(NS(=O)(=O)c2ccccc2)c(C(=O)O)c1)Nc1ccccc1 [Compound 395] | > 2000 | –
COC(=O)c1cc(-c2ccc(COc3cccc(C(F)(F)F)c3)cc2)c(C(C)C)cc1NS(=O)(=O)c1ccc2ccccc2c1 [Compound 482, methyl 6-isopropyl-4-(naphthalene-2-sulfonamido)-4′-((3-(trifluoromethyl)phenoxy)methyl)-[1,1′-biphenyl]-3-carboxylate] | > 2000 | –
Nc1ccc(SCCc2ccccc2)cc1C(=O)O [Compound 416, 2-Amino-5-(phenethylthio)benzoic acid] | 1450 ± 132 | –
O=C(O)c1cc(SCCc2ccccc2)ccc1NS(=O)(=O)CCc1ccccc1 [Compound 443, 5-(phenethylthio)-2-(2-phenylethylsulfonamido)benzoic acid] | 343 ± 33 | –
O=C(O)c1cc(SCCc2ccccc2)ccc1NS(=O)(=O)c1ccc(Oc2ccccc2)cc1 [Compound 376, 5-(Phenethylthio)-2-(4-phenoxyphenylsulfonamido)benzoic acid] | 44 ± 14 | –
O=C(O)c1cc(NCCc2ccccc2)ccc1NS(=O)(=O)c1ccccc1 [Compound 404, 5-(phenethylamino)-2-(phenylsulfonamido)benzoic acid] | 5740 ± 749 | –
O=C(O)c1cc(SCCc2ccccc2)ccc1NS(=O)(=O)c1ccccc1-c1ccccc1 [Compound 458, 2-([1,1′-biphenyl]-2-ylsulfonamido)-5-(phenethylthio)benzoic acid] | 79 ± 25 | –
O=C(O)c1cc(SCc2ccccc2)ccc1NS(=O)(=O)c1ccccc1 [Compound 392, 5-(Benzylthio)-2-(phenylsulfonamido)benzoic acid] | 993 ± 178 | –
CC(C)(C)c1ccc(N2CCN(S(=O)(=O)Nc3ccc(SCCC(=O)Nc4ccccc4)cc3C(=O)O)CC2)cc1 [Compound 435] | 245 ± 48 | –
CC(C)c1cc(NS(=O)(=O)c2ccc3ccccc3c2)c(C(=O)O)cc1-c1ccc(COc2cccc(C(F)(F)F)c2)cc1 [Compound 474, 6-isopropyl-4-(naphthalene-2-sulfonamido)-4′-((3-(trifluoromethyl)phenoxy)methyl)-[1,1′-biphenyl]-3-carboxylic acid] | 23 ± 3 | –
O=C(Nc1ccc(SCCc2ccccc2)cc1C(=O)O)c1ccccc1 [Compound 364, 2-Benzamido-5-(phenethylthio)benzoic acid] | 891 ± 185 | –
O=C(O)c1cc(SCCc2ccccc2)ccc1NS(=O)(=O)N1CCN(Cc2ccccc2)CC1 [Compound 414, 2-(1-benzylpiperazine-4-sulfonamido)-5-(phenethylthio)benzoic acid] | 275 ± 21 | –
O=C(CCc1ccccc1)Nc1ccc(SCCc2ccccc2)cc1C(=O)O [Compound 454, 5-(phenethylthio)-2-(3-phenylpropanamido)benzoic acid] | 874 ± 246 | –
O=C(O)c1ccccc1NS(=O)(=O)c1ccccc1 [Compound 455, 2-(phenylsulfonamido)benzoic acid] | > 2000 | –
COC(=O)c1cc(-c2ccc(COc3cccc(C(F)(F)F)c3)cc2)c(C(C)C)cc1NS(=O)(=O)c1ccc(Oc2ccc(F)cc2)cc1 [Compound 481, methyl 4-(4-(4-fluorophenoxy)phenylsulfonamido)-6-isopropyl-4′-((3-(trifluoromethyl)phenoxy)methyl)-[1,1′-biphenyl]-3-carboxylate] | > 2000 | –
O=C(O)c1cc(SCCc2ccccc2)ccc1NS(=O)(=O)c1ccc(-c2ccccc2)cc1 [Compound 378, 2-([1,1′-biphenyl]-4-ylsulfonamido)-5-(phenethylthio)benzoic acid] | 48 ± 12 | –
O=C(O)c1ccccc1NS(=O)(=O)c1ccc2ccccc2c1 [Compound 453, 2-(naphthalene-2-sulfonamido)benzoic acid] | > 2000 | –

Structure (SMILES) | Ki [1] [nM] | other results
CC(C)c1cc(NS(=O)(=O)c2ccc3ccccc3c2)c(C(=O)O)cc1SCCc1ccccc1 [Compound 478, 4-isopropyl-2-(naphthalene-2-sulfonamido)-5-(phenethylthio)benzoic acid] | 70 ± 21 | improvement in comparison with 382: 2.5 fold
Nc1ccc(-c2ccc(COc3cccc(C(F)(F)F)c3)cc2)cc1C(=O)O [Compound 469, 4-amino-4′-((3-(trifluoromethyl)phenoxy)methyl)-[1,1′-biphenyl]-3-carboxylic acid] | 2360 ± 80 | –
O=C(O)c1ccccc1NS(=O)(=O)N1CCN(c2ccccc2)CC1 [Compound 460, 2-(1-phenylpiperazine-4-sulfonamido)benzoic acid] | > 2000 | Mcl-1 binding, in words: deleterious
O=C(CCSc1ccc(NS(=O)(=O)c2ccccc2)c(C(=O)O)c1)Nc1ccccc1 [Compound 410] | 233 ± 21 | –
CC(C)c1cc(NS(=O)(=O)c2ccc(Oc3ccc(F)cc3)cc2)c(C(=O)O)cc1-c1ccc(COc2cccc(C(F)(F)F)c2)cc1 [Compound 480, 4-(4-(4-fluorophenoxy)phenylsulfonamido)-6-isopropyl-4′-((3-(trifluoromethyl)phenoxy)methyl)-[1,1′-biphenyl]-3-carboxylic acid] | 10 ± 3 | –
CC(C)c1cc(NS(=O)(=O)c2ccc(Oc3ccccc3)cc2)c(C(=O)O)cc1-c1ccc(COc2cccc(C(F)(F)F)c2)cc1 [Compound 477, 6-isopropyl-4-(4-phenoxyphenylsulfonamido)-4′-((3-(trifluoromethyl)phenoxy)methyl)-[1,1′-biphenyl]-3-carboxylic acid] | 13 ± 3 | –
O=C(O)c1cc(-c2ccc(COc3cccc(C(F)(F)F)c3)cc2)ccc1NS(=O)(=O)c1ccc2ccccc2c1 [Compound 471, 4-(naphthalene-2-sulfonamido)-4′-((3-(trifluoromethyl)phenoxy)methyl)-[1,1′-biphenyl]-3-carboxylic acid] | 36 ± 6 | –
O=C(O)c1cc(SCCc2ccccc2)ccc1NS(=O)(=O)c1ccccc1Br [Compound 386, 2-(2-bromophenylsulfonamido)-5-(phenethylthio)benzoic acid] | 381 ± 66 | –
O=C(O)c1cc(SCCc2ccccc2)ccc1NS(=O)(=O)Cc1ccc(Cl)cc1 [Compound 398] | 241 ± 89 | –
O=C(O)c1ccc(SCCc2ccccc2)cc1NS(=O)(=O)c1ccccc1 [Compound 702, 4-(Phenethylthio)-2-(phenylsulfonamido)benzoic acid] | 2360 ± 116 | –
O=C(O)c1cc(SCCc2ccccc2)ccc1NS(=O)(=O)N1CCN(c2ccccc2)CC1 [Compound 396, 5-(Phenethylthio)-2-(1-phenylpiperazine-4-sulfonamido)benzoic acid] | 200 ± 30 | –
O=C(CCSc1ccc(NS(=O)(=O)N2CCN(c3ccccc3)CC2)c(C(=O)O)c1)Nc1ccccc1 [Compound 429] | 2240 ± 431 | –
O=C(O)c1cc(-c2ccccc2COc2cccc(C(F)(F)F)c2)ccc1NS(=O)(=O)c1ccc2ccccc2c1 [Compound 468, 4-(naphthalene-2-sulfonamido)-2′-((3-(trifluoromethyl)phenoxy)methyl)-[1,1′-biphenyl]-3-carboxylic acid] | 50 ± 11 | –
Nc1ccc(-c2ccccc2COc2cccc(C(F)(F)F)c2)cc1C(=O)O [Compound 467, 4-amino-2′-((3-(trifluoromethyl)phenoxy)methyl)-[1,1′-biphenyl]-3-carboxylic acid] | 1160 ± 196 | –
Cc1cccc(-c2cc(NS(=O)(=O)N3CCN(c4ccc(C(C)(C)C)cc4)CC3)c(C(=O)O)cc2SCCC(=O)Nc2ccccc2)c1 [Compound 479] | 66 ± 27 | –
COC(=O)c1cc(-c2ccc(COc3cccc(C(F)(F)F)c3)cc2)c(C(C)C)cc1NC(=O)c1ccc(Oc2ccccc2)cc1 [Compound 486, methyl 6-isopropyl-4-(4-phenoxybenzamido)-4′-((3-(trifluoromethyl)phenoxy)methyl)-[1,1′-biphenyl]-3-carboxylate] | > 2000 | –
O=C(O)c1cc(SCCc2ccccc2)ccc1NS(=O)(=O)c1ccc(-c2ccc(Cl)cc2)cc1 [Compound 380, 2-(4′-chloro-[1,1′-biphenyl]-4-ylsulfonamido)-5-(phenethylthio)benzoic acid] | – | improvement of binding potency (R1 optimisation starting from 368): 16 fold; Ki (binding affinity to Mcl-1): 31 nM
O=C(O)c1cc(SCCc2ccccc2)ccc1NS(=O)(=O)c1ccc(C2CCCCC2)cc1 [Compound 418, 2-(4-cyclohexylphenylsulfonamido)-5-(phenethylthio)benzoic acid] | 31 ± 10 | –
CC(C)c1cc(NS(=O)(=O)c2ccc(Oc3ccccc3)cc2)c(C(=O)O)cc1SCCc1ccccc1 [Compound 476, 4-isopropyl-5-(phenethylthio)-2-(4-phenoxyphenylsulfonamido)benzoic acid] | 35 ± 13 | –
Cc1cccc(-c2cc(NS(=O)(=O)c3ccccc3)c(C(=O)O)cc2SCCC(=O)Nc2ccccc2)c1 [Compound 485] | 437 ± 67 | –
CCCc1ccc(-c2ccc(NS(=O)(=O)c3ccc4ccccc4c3)c(C(=O)O)c2)cc1 [Compound 466, 4-(naphthalene-2-sulfonamido)-4′-propyl-[1,1′-biphenyl]-3-carboxylic acid] | 94 ± 17 | –

— patent US9884841B2, “Small molecule inhibitors of Mcl-1 and uses thereof” (The Regents of the University of Michigan, priority 2015, dated 2018)
